B1: Sirt2: HDAC deacylation enzyme Sirt2 (protein, UniProt Q8IXJ6 2-389, looked up)
NAD-dependent protein …: AEPDPSHPLETQAGKVQEAQDSDSDSEGGAAGGEADMDFLRNLFSQTLSLGSQKERLLDELTLEGVARYMQSERCRRVICLVGAGISTSAGIPDFRSPSTGLYDNLEKYHLPYPEAIFEISYFKKHPEPFFALAKELYPGQFKPTICHYFMRLLKDKGLLLRCYTQNIDTLERIAGLEQEDLVEAHGTFYTSHCVSASCRHEYPLSWMKEKIFSEVTPKCEDCQSLVKPDIVFFGESLPARFFSCMQSDFLKVDLLLVMGTSLQVQPFASLISKAPLSTPRLLINKEKAGQSDPFLGMIMGLGGGMDFDSKKAYRDVAWLGECDQGCLALAELLGWKKELEDLVRREHASIDAQSGAGVPNPSTSASPKKSPPPAKDEARTTEREKPQ

Columns and labels:
KDM4A = target: T1, KDM4A (Homo sapiens, UniProt O75164); experiment: Zn ejection assay (TSQ Zn(II) fluorophore); type: biochemical; conditions: 20 μM compound, 2 μM KDM4A
T1 sequence (O75164 1-1064): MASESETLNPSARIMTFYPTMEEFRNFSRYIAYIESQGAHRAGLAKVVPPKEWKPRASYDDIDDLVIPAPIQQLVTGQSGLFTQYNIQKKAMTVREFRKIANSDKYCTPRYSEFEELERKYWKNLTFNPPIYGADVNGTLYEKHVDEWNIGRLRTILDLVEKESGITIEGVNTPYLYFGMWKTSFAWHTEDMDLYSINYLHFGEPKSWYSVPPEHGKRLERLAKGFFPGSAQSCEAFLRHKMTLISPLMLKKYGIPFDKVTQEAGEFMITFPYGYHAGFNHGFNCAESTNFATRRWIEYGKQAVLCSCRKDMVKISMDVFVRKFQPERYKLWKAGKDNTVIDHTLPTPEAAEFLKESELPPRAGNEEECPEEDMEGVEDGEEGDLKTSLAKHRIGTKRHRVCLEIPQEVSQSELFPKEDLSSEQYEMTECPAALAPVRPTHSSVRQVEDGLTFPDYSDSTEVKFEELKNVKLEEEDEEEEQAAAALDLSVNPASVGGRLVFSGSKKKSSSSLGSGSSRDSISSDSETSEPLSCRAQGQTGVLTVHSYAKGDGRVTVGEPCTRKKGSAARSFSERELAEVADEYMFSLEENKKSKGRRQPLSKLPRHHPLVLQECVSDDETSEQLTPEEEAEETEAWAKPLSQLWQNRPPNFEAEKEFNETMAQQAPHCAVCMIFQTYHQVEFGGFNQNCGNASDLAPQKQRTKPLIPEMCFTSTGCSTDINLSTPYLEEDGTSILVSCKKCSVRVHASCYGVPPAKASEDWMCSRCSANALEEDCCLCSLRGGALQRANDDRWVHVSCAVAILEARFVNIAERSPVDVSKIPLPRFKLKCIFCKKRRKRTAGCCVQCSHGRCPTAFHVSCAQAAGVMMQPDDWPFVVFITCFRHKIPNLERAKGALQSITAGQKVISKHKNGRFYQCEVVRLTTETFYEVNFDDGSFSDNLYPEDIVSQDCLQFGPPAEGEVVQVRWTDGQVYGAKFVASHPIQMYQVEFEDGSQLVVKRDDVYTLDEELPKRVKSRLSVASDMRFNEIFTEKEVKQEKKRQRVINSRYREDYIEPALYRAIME
Description: Zn ejection assay was performed using N-(6-nethoxy-8-quinolyl)-p-toluenesulfonamide (TSQ) (Enzo) Zn(II) fluorophore as described with minor modifications28,33. In brief, assays were performed in 384 well black μCLEAR® non-binding plates (Grenier) using a reaction volume of 100 μL at 37° C. on a BMG CLARIOstar (360ex/490em). The plate was shaken (5 s, 700 rpm) before each reading, taken every 22 s for 270 cycles. Reactions consisted of […], 25 μM Ebselen or 20 μM H3 K9Bhn/H3-wt/4-bromobutylboronic acid, and those with enzyme contained 2 μM KDM4A all with 1.1% (v/v) DMSO in 50 mM HEPES (pH 7.5). Compounds and TSQ were added to the plate before initiating the assay with addition of KDM4A using the CLARIOstar injector (FIG. 4d). An internal calibration curve of ZnCl2 (0-2 μM) in 50 mM HEPES (pH 7.5) was included in each experiment to quantitate the concentrations of Zn(II) ejected. Data were normalised by subtracting a no enzyme control for that compound at each time point. Mean±standard deviation (n=3 technical replicates) was plotted for each time point using GraphPad Prism 5.0, representative data from three biological replicates is shown.
The rate of Zn(II) ejection was calculated from the slope of linear regression plotted over the linear region of Zn(II) ejection (from 946-3982 s) plotted in GraphPad Prism 5.0. […]

Cyclic voltammetry = type: physicochemical
Description: Catechol and 4-bromobutylboronic acid were obtained from Sigma-Aldrich and used as received without further purification. All solutions were made up using ultrapure water of resistivity not less than 18.2 MQ cm (Millipore) at 25° C. and degassed thoroughly with nitrogen (99.998%, BOC Gases plc) before use. Phosphate buffered saline (PBS) solution (pH=6.0) consisting of 43.85 mM sodium phosphate monobasic and 6.15 mM potassium phosphate dibasic.
All voltammetric measurements were recorded using an Autolab PGSTAT30 computer controlled potentiostat (Metrohm, Utrecht, The Netherlands). Experiments were performed in a thermostatted (25.0+0.3° C.) Faraday cage using a three-electrode set-up. A glassy carbon macroelectrode (diameter 3.0 mm, CH Instrument) was used as the working electrode, a saturated calomel electrode (SCE) as the reference electrode (SCE, ALS distributed by BASi, Tokyo, Japan) and a graphite rod as the counter electrode. Prior to each voltammetric experiment, renewal of the working electrode surface was achieved by polishing with alumina slurries in the size sequence 1.0 m, 0.3 m and 0.05 m, (Buehler Ltd, USA) followed by sonication in water and drying with nitrogen.

Sirt2 = target: T2, Sirt2 (Homo sapiens, UniProt Q8IXJ6); experiment: Sirt2 deacylation of acylated histone H3-K18 (intact-protein LC-MS timecourse, 19F-NMR); type: biochemical; conditions: deacylation of γ-F2 labelled KAc side chain, protein 19F NMR
T2 construct: His tag (inferred from the HisTrap purification); made in house; host or cells: E. coli BL21(DE3)
T2 sequence (Q8IXJ6 1-389): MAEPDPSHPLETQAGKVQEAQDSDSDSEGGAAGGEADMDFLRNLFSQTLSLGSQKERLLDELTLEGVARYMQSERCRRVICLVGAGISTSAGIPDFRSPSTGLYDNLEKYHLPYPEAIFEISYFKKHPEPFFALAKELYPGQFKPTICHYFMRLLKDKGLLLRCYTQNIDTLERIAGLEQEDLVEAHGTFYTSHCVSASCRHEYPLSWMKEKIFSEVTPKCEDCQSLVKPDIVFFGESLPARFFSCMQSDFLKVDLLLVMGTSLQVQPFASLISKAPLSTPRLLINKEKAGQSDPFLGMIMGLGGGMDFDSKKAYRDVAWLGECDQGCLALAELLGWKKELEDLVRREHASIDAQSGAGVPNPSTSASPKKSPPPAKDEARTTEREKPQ
Excerpt: H3-KAc18 and H3-KBzl8 were generated using BACED reagents (FIG. 4A).
The pySOOF reagents were also used to generate corresponding H—F labeled side chain analogues such as K[γF2]Ac and K[γF2] sidechains 2 k and 2f, respectively. […] Other sidechain variations could similarly be distinguished at different sites in the same protein e.g. H3.1-K9→H3.1-KAc9→H3.1-Kme39 (sidechains 2f→2 k→2j=δF −99.0→−98.0→−99.2) or H3.1-M27 (sidechain 2×δF −74.8) or H3.1-E9 (sidechain 2u δF −103.3). In this way, the diverse scope of available further sidechains allows this approach to be explored in numerous additional directions such as e.g. monitoring heteroatom variation (e.g. N→O, ‘deaza-oxo’ variant KOAc, sidechain 2r for H3.1-K18→H3.1-KOAc18, sidechains 2 k→2r) or even precisely assaying sidechain Met oxidation state (H3.1-M27→H3.1-Mox27→H3.1-Mox27, sidechains 2x→2y→2z).
Due to the site-selectivity of the insertion of this label and its excellent sensitivity in ‘zero background’, not only could chemical shift of ^19F signal be ‘read’ but also its multiplicity through correlated simulation (FIG. 4B).

Molecule | Time-dependent release of Zn(II) from KDM4A observed (KDM4A) | Zn(II)-ejection rate (KDM4A; 50 mM HEPES pH 7.5, 37° C., slope of linear region 946-3982 s) | oxidation in the absence of catechol (Cyclic voltammetry; absence of catechol) | half potential Eox (irreversible oxidation event) (Cyclic voltammetry; catechol-enhanced conditions (1:12), saturated calomel reference electrode) | L/D selectivity preference (Sirt2) | ΔΔG of L/D selectivity (Sirt2)
OB(O)CCCCBr [Example 1u-precursor, 4-bromobutylboronic acid] | not | 0.805 ± 0.010 nM/min | no oxidation was observed | +0.93 V | – | –
B1 | – | – | – | – | > 14 | > 1.58 kcal/mol

From patent US20230272002A1, “PHOTOREDOX PROTEIN MODIFICATION” (THE ROSALIND FRANKLIN INSTITUTE, priority 2020, published 2023)
